Structures are written as SMILES.

For the first experiment, the target named is T1, Pol theta (1-899) (Homo sapiens, UniProt O75417).
T1 construct: Pol theta (1-899) (5 nM) in assay buffer
T1 sequence (O75417 1-899): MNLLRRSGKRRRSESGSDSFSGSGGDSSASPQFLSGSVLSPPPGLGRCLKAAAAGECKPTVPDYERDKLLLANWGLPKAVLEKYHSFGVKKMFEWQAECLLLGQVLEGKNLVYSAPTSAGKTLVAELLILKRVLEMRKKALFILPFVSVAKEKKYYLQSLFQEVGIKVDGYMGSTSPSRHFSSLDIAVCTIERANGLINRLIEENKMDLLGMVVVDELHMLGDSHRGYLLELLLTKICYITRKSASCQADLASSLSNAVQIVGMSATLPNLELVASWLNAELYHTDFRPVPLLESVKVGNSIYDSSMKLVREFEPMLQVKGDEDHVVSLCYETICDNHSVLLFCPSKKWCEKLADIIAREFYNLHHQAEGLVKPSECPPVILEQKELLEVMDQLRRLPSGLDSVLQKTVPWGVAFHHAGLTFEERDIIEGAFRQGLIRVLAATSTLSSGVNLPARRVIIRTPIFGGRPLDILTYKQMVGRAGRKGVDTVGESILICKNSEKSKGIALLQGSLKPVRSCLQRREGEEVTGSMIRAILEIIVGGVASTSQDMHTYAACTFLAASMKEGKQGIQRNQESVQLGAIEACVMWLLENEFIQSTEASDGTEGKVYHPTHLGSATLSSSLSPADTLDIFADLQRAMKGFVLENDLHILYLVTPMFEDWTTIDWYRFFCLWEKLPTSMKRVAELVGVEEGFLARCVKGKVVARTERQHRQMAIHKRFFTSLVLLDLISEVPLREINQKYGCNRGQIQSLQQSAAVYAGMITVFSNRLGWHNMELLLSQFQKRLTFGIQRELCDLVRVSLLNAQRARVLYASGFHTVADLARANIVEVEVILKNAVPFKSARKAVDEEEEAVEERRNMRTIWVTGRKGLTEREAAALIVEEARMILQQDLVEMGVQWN
In words: Pol theta ATPase activity, NADH oxidation-coupled enzymatic assay (ATPase NADH coupling: Standard Screening: hPolQ). Type of experiment: biochemical. The note with it: Pol theta (1-899) 5 nM, NADH oxidation-coupled ATPase assay; compounds of Table 3. How it is done: The ability of the compounds of Formula (I) or Table 1 to inhibit ATPase activity of Pol theta (1-899) was determined using the assay described below. Pol Theta ATPase activity was determined by measuring the rate of ATP turn over in a NADH oxidation-coupled enzymatic assay. 10-point dilution series of compounds were used in a 384 well format for the inhibition assays. Pol theta (1-899) (5 nM) in assay buffer (20 mM Tris HCl (pH 7.80), 80 mM KCl, 10 mM MgCl2, 1 mM DTT, 0.01% BSA, 0.01% Tween, 5% glycerol) was transferred to the test wells (20 μL), except the low control wells (20 μL of assay buffer was added to the low control wells). The plate was then incubated at room temperature for 15 min. An equal volume (20 μL) of 100 μM ATP, 300 nM […] (single-stranded DNA (ssDNA) containing 50 thymine bases), 300 μM NADH, 6 mM PEP, 10 U/mL lactate dehydrogenase and 20 U/mL pyruvate kinase in assay buffer was added to all the test wells. The plate was then centrifuged at 1000 rpm for 1 min. The reaction was monitored for 60 min by measuring absorbance (λ=340 nm) in a Tecan Spark multimode plate reader every minute. The high control (DMSO with enzyme) with low absorbance intensity represents no inhibition of ATPase reaction while the low control (DMSO with buffer) with high absorbance intensity represents full inhibition of ATPase activity. Slope of the reaction progress curves were used to calculate the rate of ATP hydrolysis. The rates were used to determine the percent inhibition using a four-parameter inhibition model to generate IC50, Hill slope and max inhibition.
Turning to `COc1nnc(NC(=O)c2cnc(C)cc2-c2cccc(-c3ccn(C)n3)c2)s1` [Example 453, N-(5-methoxy-1,3,4-thiadiazol-2-yl)-6-methyl-4-[3-(1-methyl-1H-pyrazol-3-yl)phenyl]pyridine-3-carboxamide], the IC50 (commonly the point on the concentration scale where inhibition reaches its midpoint) was 1000 to 10000 nM.
In turn, `COc1cnc(C)c(F)c1-c1cc(C)ncc1C(=O)Nc1nnc(O[C@H]2CC[C@@H](CO)CC2)s1` [Example 257, 3′-fluoro-N-(5-(((1s,4s)-4-(hydroxymethyl)cyclohexyl)oxy)-1,3,4-thiadiazol-2-yl)-5′-methoxy-2′,6-dimethyl-[4,4′-bipyridine]-3-carboxamide] showed an IC50 not above 200 nM.
For the molecule `COc1nnc(NC(=O)c2cnc(C)cc2-c2cnnc(C)c2)s1` [Example 440, N-(5-methoxy-1,3,4-thiadiazol-2-yl)-6-methyl-4-(6-methylpyridazin-4-yl)nicotinamide], the IC50 fell in the range of 1000 to 10000 nM.
Same read-out and setting: the same measure for `COc1nnc(NC(=O)c2cnc(C)cc2-c2cc(Br)c([S@+](C)[O-])cc2OC)s1` (single isomer, unassigned) [Example 322]: 500 to 1000 nM; for `COc1nnc(NC(=O)c2cnc(C)cc2-c2cc(Cl)c([S@@+]([O-])C3CC3)cc2OC)s1` (single isomer, unassigned) [Example 318]: not above 200 nM.
Consider `COc1nnc(NC(=O)c2cc(OC)c(C)cc2-c2cc(Cl)ncc2OC)s1` [Example 301, 2-(2-chloro-5-methoxypyridin-4-yl)-5-methoxy-N-(5-methoxy-1,3,4-thiadiazol-2-yl)-4-methylbenzamide], for which the IC50 is not above 200 nM.
`CCc1ccc(-c2cc(C)ncc2C(=O)Nc2nnc(OC)s2)cc1` [Example 459, 4-(4-ethylphenyl)-N-(5-methoxy-1,3,4-thiadiazol-2-yl)-6-methylpyridine-3-carboxamide] yielded an IC50 of 1000 to 10000 nM.
In turn, `COc1ccc(OC)c(-c2cc(C)ncc2C(=O)Nc2nnc(OC)s2)c1` [Example 486, 4-(2,5-dimethoxyphenyl)-N-(5-methoxy-1,3,4-thiadiazol-2-yl)-6-methylnicotinamide] returned an IC50 of 500 to 1000 nM.
On the same count and under the same terms, the same measure for `COc1cnc(Cl)cc1-c1cc(C)ncc1C(=O)Nc1nnc(OC2CCCN(C3COC3)C2)s1` (centres unmarked) [Example 250, 2′-chloro-5′-methoxy-6-methyl-N-(5-((1-(oxetan-3-yl)piperidin-3-yl)oxy)-1,3,4-thiadiazol-2-yl)-[4,4′-bipyridine]-3-carboxamide]: not above 200 nM; for `COc1nnc(NC(=O)c2ccncc2-c2cc(Cl)ncc2OC)s1` [Example 259, 2′-chloro-5′-methoxy-N-(5-methoxy-1,3,4-thiadiazol-2-yl)-[3,4′-bipyridine]-4-carboxamide]: not above 200 nM; for `COc1nnc(NC(=O)c2cnc(C)cc2-c2ccccc2)s1` [Example 329, N-(5-methoxy-1,3,4-thiadiazol-2-yl)-6-methyl-4-phenylpyridine-3-carboxamide]: 1000 to 10000 nM.
In turn, `COc1nnc(NC(=O)c2cnc(C)cc2-c2ccc3c(c2)NC(=O)CO3)s1` [Example 346, N-(5-methoxy-1,3,4-thiadiazol-2-yl)-6-methyl-4-(3-oxo-3,4-dihydro-2H-1,4-benzoxazin-6-yl)pyridine-3-carboxamide] had an IC50 of 1000 to 10000 nM.
In the case of `COc1nnc(NC(=O)c2cnc(C)cc2-c2ccc3cn[nH]c3c2)s1` [Example 338, 4-(1H-indazol-6-yl)-N-(5-methoxy-1,3,4-thiadiazol-2-yl)-6-methylnicotinamide], the IC50 was in the range of 1000 to 10000 nM.
Molecule `CNC(=O)c1ccc(-c2cc(C)ncc2C(=O)Nc2nnc(OC)s2)cn1` [Example 479, N3′-(5-methoxy-1,3,4-thiadiazol-2-yl)-N6,6′-dimethyl-[3,4′-bipyridine]-3′,6-dicarboxamide] showed an IC50 of 1000 to 10000 nM.
`COc1nnc(NC(=O)c2cnc(C)cc2-c2cnc3[nH]ccc3c2)s1` [Example 399, N-(5-methoxy-1,3,4-thiadiazol-2-yl)-6-methyl-4-{1H-pyrrolo[2,3-b]pyridin-5-yl}pyridine-3-carboxamide] came in with an IC50 of 1000 to 10000 nM.
Same read-out and setting: under `COc1nnc(NC(=O)c2cc(F)c(C)cc2-c2cc(Cl)ncc2OC)s1` [Example 282, 2-(2-chloro-5-methoxypyridin-4-yl)-5-fluoro-N-(5-methoxy-1,3,4-thiadiazol-2-yl)-4-methyl benzamide] stands not above 200 nM.

The experiment is the same for the next values; noted with them: Table 4; Pol theta (1-899) 5 nM, ATP, dT50 ssDNA.
Molecule `COc1nnc(NC(=O)c2cnc(C)cc2-c2cc(Cl)ncc2C)s1` [Example 39, 2′-chloro-N-(5-methoxy-1,3,4-thiadiazol-2-yl)-5′,6-dimethyl-(4,4′-bipyridine)-3-carboxamide] showed an IC50 not above 200 nM.
`COc1cnc(Cl)cc1-c1cc(C)ncc1C(=O)Nc1nnc(O[C@@H]2CCOC2)s1` [Example 23, (R)-2′-chloro-5′-methoxy-6-methyl-N-(5-((tetrahydrofuran-3-yl)oxy)-1,3,4-thiadiazol-2-yl)-(4,4′-bipyridine)-3-carboxamide] registered an IC50 not above 200 nM.
The molecule `COc1cnc(Cl)cc1-c1cc(C)ncc1C(=O)Nc1nnc(OC2CCCCC2)s1` [Example 12, 2′-chloro-N-(5-(cyclohexyloxy)-1,3,4-thiadiazol-2-yl)-5′-methoxy-6-methyl-(4,4′-bipyridine)-3-carboxamide] displayed an IC50 not above 200 nM.

The experiment is the same for the next values; noted with them: Table 5; Pol theta (1-899) 5 nM, ATP, dT50 ssDNA.
The molecule `Cc1cc(-c2cc(Cl)ncc2OC(F)F)c(C(=O)Nc2nnc(O[C@@H]3CCOC3)s2)cn1` [Example 82, (R)-2′-chloro-5′-(difluoromethoxy)-6-methyl-N-(5-((tetrahydrofuran-3-yl)oxy)-1,3,4-thiadiazol-2-yl)-(4,4′-bipyridine)-3-carboxamide] returned an IC50 not above 200 nM.
On to `Cc1cc(-c2cc(Cl)ncc2OC(F)F)c(C(=O)Nc2nnc(O[C@H]3COC4(CC4)C3)s2)cn1` (single isomer, unassigned) [Example 233], for which the IC50 was not above 200 nM.
Turning to `COc1cnc(C)c(F)c1-c1cc(C)ncc1C(=O)Nc1nnc(O[C@H]2CC[C@](C)(O)CC2)s1` (single isomer, unassigned) [Example 224, 3′-fluoro-N-(5-(((1r,4r)-4-hydroxy-4-methylcyclohexyl)oxy)-1,3,4-thiadiazol-2-yl)-5′-methoxy-2′,6-dimethyl-(4,4′-bipyridine)-3-carboxamide], the IC50 is not above 200 nM.
On the same count and under the same terms, the same measure for `COc1nnc(NC(=O)c2cnc(COC3CC3)cc2-c2cc(Cl)ncc2OC)s1` [Example 215, 2′-chloro-6-(cyclopropoxymethyl)-5′-methoxy-N-(5-methoxy-1,3,4-thiadiazol-2-yl)-(4,4′-bipyridine)-3-carboxamide]: not above 200 nM; for `COc1nnc(NC(=O)c2cnc(OC3CC3)cc2-c2cc(Cl)ncc2OC)s1` [Example 196, 2′-chloro-6-cyclopropoxy-5′-methoxy-N-(5-methoxy-1,3,4-thiadiazol-2-yl)-(4,4′-bipyridine)-3-carboxamide]: 500 to 1000 nM.
In turn, `COc1cnc(Cl)c(F)c1-c1cc(C)ncc1C(=O)Nc1nnc(O[C@H]2CCOC2)s1` [Example 81, 2′-chloro-3′-fluoro-5′-methoxy-6-methyl-N-(5-(((S)-tetrahydrofuran-3-yl)oxy)-1,3,4-thiadiazol-2-yl)-(4,4′-bipyridine)-3-carboxamide] yielded an IC50 not above 200 nM.
Same read-out and setting: under `COc1cnc(Cl)cc1-c1cc(C)ncc1C(=O)Nc1nnc(O[C@H]2CC[C@@H](OC)CC2)s1` (single isomer, unassigned) [Example 124, 2′-chloro-5′-methoxy-N-(5-(((1s,4s)-4-methoxycyclohexyl)oxy)-1,3,4-thiadiazol-2-yl)-6-methyl-(4,4′-bipyridine)-3-carboxamide] stands not above 200 nM.

(Values after patent US20240287080A1 (IDEAYA Biosciences Inc., priority 2021, published 2024).)
